Patent publication USRE30731E, “Enkephalin analogues” (priority 1977, dated 1981)

Assays:
rat brain membranes = experiment: radio receptor assay (R.R.A.): displacement of tritiated naloxone from rat brain membranes; format: binding; conditions: based on concentration displacing 50% of (3H)naloxone (1 nM) from rat brain membranes; 0.1 M NaCl/50 mM Tris pH 7.4; 15 minutes; bacitracin
Protocol: (III)R.R.A. stands for radio receptor assay; based on the concentration
required to displace 50% of tritiated naloxone from rat brain membranes.
The displacements .[.replacements.]. were carried out against (^3
H)naloxane (lnM) in 0.1 M sodium chloride/50mM Tris buffer at pH 7.4;
incubations were for 15 minutes in the .Iadd.presence
.Iaddend..[.absence.]. of bacitracin. For general reference to the method
see literature as discussed in "Opiate Receptor Mechanisms". S. H. Snyder
and S. Matthysse eds, MIT Press, 1975.

rats = experiment: tail flick assay, intraventricular administration; format: in vivo, rat; conditions: administered intraventricularly to rats
Text: Also, we have indications of in vivo analgesic effects of the analogues.

mouse vas deferens = mouse vas deferens (M.V.D.) assay; format: cell-based; conditions: Met Enkephalin = 100%
Text: (II)M.V.D. stands for mouse vas deferens
Kosterhtz, H. W. & Leslie. F. M. Br. J. Pharmac. 53, 371, 381,

5-Amino-6-(4'-hdyroxyphenyl)-hexanoyl-glycyl-L-phenylalanyl-L-methionine a mide [Analogue H211]
Activity Relative to Met Enkephalin, R.R.A. (rat brain membranes): 8% | analgesia (tail flick assay) (rats): analgesia lasting for several minutes | Activity Relative to Met Enkephalin, M.V.D. (mouse vas deferens): 0.9%
